We go through 61 molecules from patent US20250304537A1 (Repare Therapeutics Inc., priority 2022, published 2025).

The target in this assay is recombinant human Myt1 (full length PKMYT1) (Homo sapiens (Human), UniProt Q99640). As to the kind of experiment: Recombinant human Myt1 kinase assay (ADP-Glo). In kind it is biochemical. The settings on record: 10 μM ATP. As to the method: Detection of Myt1 kinase activity utilized a recombinant human Myt1 kinase assay measuring the hydrolysis of ATP using a commercially available ADP-Glo Assay (ADP-Glo™ Kinase Assay from Promega, 10 000 assays, #V9102). Briefly, 5 μL recombinant human Myt1 (full length PKMYT1 recombinant human protein expressed in insect cells from Thermo Fisher #A33387; ˜80% purity) was prepared in reaction buffer (70 mM HEPES, 3 mM MgCl2, 3 mM MnCl2, 50 μg/ml PEG 20000, 3 μM Na-orthovanadate, 1.2 mM DTT) and added to 384 well white polystyrene, flat bottom well, non-treated, microplate (Corning #3572). After this, 5 μL of compounds (diluted in reaction buffer to 0.5% DMSO) was added to the microplate and the plate was spun briefly and incubated at 22° C. for 15 minutes. Ultra-Pure Adenosine Triphosphate (ATP) solution (ADP-Glo kit from Promega) was diluted in reaction buffer and 5 μL was added to the microplate, spun down briefly and incubated for 60 minutes at 30° C. The final Myt1 enzyme concentration was 18 nM and the final ATP concentration was 10 μM. After the 60-minute incubation, 15 μL of ADP-Glo reagent was added and the plate was spun briefly and sealed and incubated in the dark for 40 minutes at 22° C. Following this, 30 μL of kinase detection reagent was added per well and the plate was spun briefly, sealed and incubated for 45-60 minutes at 22° C. in the dark. Luminescence was read using the Envision (250 ms integration). The IC50 and the % max inhibition were calculated for each inhibitor compound tested.
Sequence of recombinant human Myt1 (full length PKMYT1) (Q99640 whole entry): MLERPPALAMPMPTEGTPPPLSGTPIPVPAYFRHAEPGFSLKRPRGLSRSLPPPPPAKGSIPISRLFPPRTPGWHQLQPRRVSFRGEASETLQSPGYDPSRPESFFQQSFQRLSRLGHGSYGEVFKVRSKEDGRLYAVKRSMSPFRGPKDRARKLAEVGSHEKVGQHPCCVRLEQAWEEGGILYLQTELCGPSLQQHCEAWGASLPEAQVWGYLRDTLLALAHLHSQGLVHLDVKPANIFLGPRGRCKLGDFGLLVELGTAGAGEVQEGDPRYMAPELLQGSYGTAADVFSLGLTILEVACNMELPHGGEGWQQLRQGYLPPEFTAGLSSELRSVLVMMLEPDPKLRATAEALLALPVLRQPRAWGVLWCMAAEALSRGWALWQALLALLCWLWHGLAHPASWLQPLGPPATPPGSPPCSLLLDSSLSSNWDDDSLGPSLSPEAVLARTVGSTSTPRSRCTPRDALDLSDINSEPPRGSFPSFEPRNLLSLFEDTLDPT
Background: ADP-Glo turns the ADP formed in a reaction into a luminescent signal.
As for `Cc1ccc(O)cc1-c1cc(C(N)=O)nc2ccccc12` [Compound 74, 4-(5-hydroxy-2-methylphenyl)quinoline-2-carboxamide], the IC50 came to 2880 nM.

For `Cc1ccc2[nH]ncc2c1-c1nc(-c2ccccc2)nc(C(N)=O)c1Cl` [Compound 75, 5-chloro-6-(5-methyl-1H-indazol-4-yl)-2-phenylpyrimidine-4-carboxamide], the IC50 was more than 2000 nM.

Regarding `Cc1ccc2[nH]ncc2c1-c1cc(C(N)=O)nc(-c2ccccc2)n1` [Compound 76, 6-(5-methyl-1H-indazol-4-yl)-2-phenylpyrimidine-4-carboxamide], the IC50 was more than 2000 nM.

For the molecule `Cc1ccc2[nH]ncc2c1-c1cc(-c2ccccn2)nc(C(N)=O)c1N` [Compound 96], the IC50 stood at 387 nM.

With `Cc1ccc2[nH]ncc2c1-c1cc(-c2cccnc2)nc(C(N)=O)c1N` [Compound 97], the IC50 came to 54 nM.

For `Cc1ccc2[nH]ncc2c1-c1cc(-c2cncs2)nc(C(N)=O)c1N` [Compound 98], the IC50 was 1940 nM.

Regarding `Cc1ccc2[nH]ncc2c1-c1nc(-c2cccnc2)nc(C(N)=O)c1N` [Compound 99], the IC50 was determined as 59 nM.

On to `Cc1ccc2[nH]ncc2c1-c1nc(-c2ccc(N3CCOCC3)cc2)nc(C(N)=O)c1N` [Compound 103], for which the IC50 came out at 94 nM.

For `Cc1ccc2[nH]ncc2c1-c1nc(-c2ccc(C(F)(F)F)cc2)nc(C(N)=O)c1N` [Compound 104], the IC50 was found to be 317 nM.

As to `NC(=O)c1nc(-c2ccnnc2)cc(-c2c(Cl)ccc3[nH]ncc23)c1N` [Compound 106], the IC50 was 28 nM.

`Cc1ccc2[nH]ncc2c1-c1nc(-c2cccc(Cl)c2)nc(C(N)=O)c1N` [Compound 111]: the IC50 was found to be 44 nM.

In the case of `Cc1ccc2[nH]ncc2c1-c1nc(-c2cccc(C(F)(F)F)c2)nc(C(N)=O)c1N` [Compound 112], the IC50 was 100 nM.

Regarding `Cc1ccc2[nH]ncc2c1-c1nc(-c2ccc(Oc3ccccc3)cc2)nc(C(N)=O)c1N` [Compound 113], the IC50 was 1110 nM.

Consider `Cc1n[nH]c2cccc(-c3nc(-c4ccccc4)nc(C(N)=O)c3N)c12` [Compound 116], for which the IC50 was more than 5000 nM.

Take `Cc1ccc2[nH]ncc2c1-c1nc(-c2ccccn2)nc(C(N)=O)c1N` [Compound 117]: the IC50 was 90 nM.

As to `Cc1ccc2[nH]ncc2c1-c1nc(-c2ccc(OC3CCOCC3)c(C#N)c2)nc(C(N)=O)c1N` [Compound 118], the IC50 is 309 nM.

As to `Cc1ccc2[nH]ncc2c1-c1nc(-c2ccc3cnn(C)c3c2)nc(C(N)=O)c1N` [Compound 119], the IC50 is 25 nM.

Turning to `COCCOc1ccc(-c2nc(C(N)=O)c(N)c(-c3c(C)ccc4[nH]ncc34)n2)cc1` [Compound 124], the IC50 stood at 25 nM.

For `Cc1ccc2[nH]ncc2c1-c1nc(-c2ccc(C3(C#N)CC3)cc2)nc(C(N)=O)c1N` [Compound 125], the IC50 was determined as 51 nM.

Regarding `Cc1ccc2[nH]ncc2c1-c1nc(-c2cccc(C(C)(C)C#N)c2)nc(C(N)=O)c1N` [Compound 126], the IC50 was determined as 27 nM.

Regarding `Cc1ccc2[nH]ncc2c1-c1nc(-c2ccc(OC3CC3)cc2)nc(C(N)=O)c1N` [Compound 127], the IC50 worked out at 120 nM.

For `CC(=O)c1ccc(-c2nc(C(N)=O)c(N)c(-c3c(C)ccc4[nH]ncc34)n2)cc1` [Compound 128], the IC50 was 57 nM.

With `Cc1ccc2[nH]ncc2c1-c1nc(-c2ccc3cn[nH]c3c2)nc(C(N)=O)c1N` [Compound 129], the IC50 was determined as 23 nM.

For the molecule `Cc1ccc2[nH]ncc2c1-c1cc(-c2ccccn2)cc(C(N)=O)c1N` [Compound 137, 2-amino-3-(5-methyl-1H-indazol-4-yl)-5-(pyridin-2-yl)benzamide], the IC50 stood at 46 nM.

In the case of `COCCCOc1ccc(-c2nc(C(N)=O)c(N)c(-c3c(C)ccc4[nH]ncc34)n2)cc1` [Compound 138], the IC50 turned out to be 43 nM.

In the case of `Cc1ccc2[nH]ncc2c1-c1nc(-c2cccc(N(C)C)c2)nc(C(N)=O)c1N` [Compound 139], the IC50 stood at 57 nM.

With `CNc1cccc(-c2nc(C(N)=O)c(N)c(-c3c(C)ccc4[nH]ncc34)n2)c1` [Compound 140], the IC50 turned out to be 48 nM.

Turning to `COc1cccc(-c2nc(C(N)=O)c(N)c(-c3c(C)ccc4[nH]ncc34)n2)c1` [Compound 141], the IC50 stood at 23 nM.

Take `Cc1ccc2[nH]ncc2c1-c1nc(-c2cccc(N3CCCC3)c2)nc(C(N)=O)c1N` [Compound 142]: the IC50 is 54 nM.

Consider `Cc1cc(-c2nc(C(N)=O)c(N)c(-c3c(C)ccc4[nH]ncc34)n2)cc(C(F)(F)F)c1` [Compound 144], for which the IC50 worked out at 130 nM.

As to `Cc1ccc2[nH]ncc2c1-c1nc(-c2ccc(N(C)C)cc2)nc(C(N)=O)c1N` [Compound 145], the IC50 was 57 nM.

For the molecule `Cc1ccc2[nH]ncc2c1-c1nc(-c2ccc(CN3CCOCC3)cc2)nc(C(N)=O)c1N` [Compound 147], the concentration for half-maximal inhibition (IC50) was determined as 217 nM.

Regarding `Cc1csc(-c2nc(C(N)=O)c(N)c(-c3c(C)ccc4[nH]ncc34)n2)c1` [Compound 148], the IC50 stood at 69 nM.

As to `Cc1ccc(O)c(C)c1-c1cc(-c2ccnnc2)cc(C(N)=O)c1N` [Compound 149], the IC50 came to 735 nM.

For the molecule `Cc1ccc2[nH]ncc2c1-c1nc(-c2cccc(C(=O)O)c2)nc(C(N)=O)c1N` [Compound 150], the IC50 was determined as 1110 nM.

Regarding `Cc1cc(-c2nc(C(N)=O)c(N)c(-c3c(C)ccc4[nH]ncc34)n2)ccc1C#N` [Compound 151], the IC50 is 27 nM.

With `CNc1ccc(-c2nc(C(N)=O)c(N)c(-c3c(C)ccc4[nH]ncc34)n2)cc1` [Compound 152], the IC50 turned out to be 44 nM.

On to `Cc1ccc2[nH]ncc2c1-c1nc(-c2ccnc(C(F)(F)F)c2)nc(C(N)=O)c1N` [Compound 153], for which the IC50 was 27 nM.

In the case of `Cc1ccc2[nH]ncc2c1-c1nc(-c2ccnc(N3CCN(C)CC3)c2)nc(C(N)=O)c1N` [Compound 154], the IC50 amounted to 30 nM.

On to `Cc1ccc2[nH]ncc2c1-c1nc(-c2ccnc(N3CCOCC3)c2)nc(C(N)=O)c1N` [Compound 155], for which the IC50 was determined as 15 nM.

As to `Cc1ccc2[nH]ncc2c1-c1nc(-c2ccc(CN3CCOCC3)s2)nc(C(N)=O)c1N` [Compound 156], the IC50 came to 17 nM.

On to `Cc1ccc2[nH]ncc2c1-c1nc(-c2ccc(N3CCOCC3)c(C(F)(F)F)c2)nc(C(N)=O)c1N` [Compound 157], for which the IC50 amounted to 904 nM.

For `Cc1ccc2[nH]ncc2c1-c1nc(-c2ccc(C#N)s2)nc(C(N)=O)c1N` [Compound 158], the 50% inhibitory concentration (IC50) was 21 nM.

Regarding `Cc1ccc2[nH]ncc2c1-c1nc(-c2ccc(C(=O)O)s2)nc(C(N)=O)c1N` [Compound 162], the IC50 was found to be 198 nM.

Regarding `Cc1ccc2[nH]ncc2c1-c1cc(-c2ccn(C)n2)nc(C(N)=O)c1N` [Compound 171], the IC50 is 96 nM.

In the case of `Cc1ccc2[nH]ncc2c1-c1cc(-c2cn(C)cn2)nc(C(N)=O)c1N` [Compound 172], the IC50 was 53 nM.

Turning to `Cc1ccc2[nH]ncc2c1-c1cc(-c2cccc(OCC(F)(F)F)c2)nc(C(N)=O)c1N` [Compound 175], the IC50 amounted to 364 nM.

For `Cc1ccc2[nH]ncc2c1-c1cc(-c2ccnc(OC3COC3)n2)nc(C(N)=O)c1N` [Compound 176], the concentration for half-maximal inhibition (IC50) was found to be 770 nM.

Take `Cc1ccc2[nH]ncc2c1-c1cc(-c2ccc(=O)[nH]c2)nc(C(N)=O)c1N` [Compound 178]: the IC50 amounted to 68 nM.

For the molecule `COc1ccccc1COc1cccc(-c2cc(-c3c(C)ccc4[nH]ncc34)c(N)c(C(N)=O)n2)n1` [Compound 181], the IC50 worked out at 103 nM.

In the case of `Cc1ccc2[nH]ncc2c1-c1cc(-c2cccc(N3CCSCC3)n2)nc(C(N)=O)c1N` [Compound 187], the IC50 came out at 78 nM.

Regarding `Cc1ccc2[nH]ncc2c1-c1cc(-c2ccnc(OCCOCCN(C)C)n2)nc(C(N)=O)c1N` [Compound 192], the IC50 stood at 25 nM.

For the molecule `Cc1ccc2[nH]ncc2c1-c1cc(-c2ccnc(OC3CN(C(=O)OC(C)(C)C)C3)n2)nc(C(N)=O)c1N` [Compound 193], the IC50 amounted to 191 nM.

On to `Cc1ccc2[nH]ncc2c1-c1cc(-c2ccnc(OCCOc3ccccc3)n2)nc(C(N)=O)c1N` [Compound 195], for which the IC50 worked out at 182 nM.

For the molecule `Cc1ccc2[nH]ncc2c1-c1cc(-c2ccnc(OCc3cc4ccccc4o3)n2)nc(C(N)=O)c1N` [Compound 196], the IC50 came out at 754 nM.

With `Cc1ccc2[nH]ncc2c1-c1cc(-c2ccc(OC3COC3)nc2)nc(C(N)=O)c1N` [Compound 201], the IC50 turned out to be 91 nM.

Consider `Cc1ccc2[nH]ncc2c1-c1cc(-c2cccc(Oc3ccccn3)n2)nc(C(N)=O)c1N` [Compound 202], for which the IC50 is 107 nM.

With `Cc1ccc2[nH]ncc2c1-c1cc(-c2ccnc(OCCN(C)C(=O)OC(C)(C)C)n2)nc(C(N)=O)c1N` [Compound 209], the IC50 turned out to be 73 nM.

In the case of `CCCCc1cc(-c2c(C)ccc3[nH]ncc23)c(N)c(C(N)=O)n1` [Compound 216, 3-amino-6-butyl-4-(5-methyl-1H-indazol-4-yl)picolinamide], the IC50 was 1510 nM.

On to `Cc1ccc2[nH]ncc2c1-c1cc(-c2cccc(N3CCOCC3)n2)nc(C(N)=O)c1N` [Compound 217], for which the IC50 came out at 13 nM.

As for `Cc1ccc2[nH]ncc2c1-c1cc(-c2cnc(C(C)(C)O)s2)nc(C(N)=O)c1N` [Compound 218], the IC50 was 230 nM.

Broadly, the IC50 is the concentration that gives 50% inhibition.
